Results: PMC9278437 (Journal of Enzyme Inhibition and Medicinal Chemistry, 2022)
Each block holds one molecule with its values, some of them ahead of it.

Key:
[1] = target: CDK2/cyclin A2 (Homo sapiens, UniProt P24941); experiment: biochemical
[2] = test system: breast cancer (MCF-7) cell line; experiment: In vitro anti-proliferative activity, MTT assay, MCF-7; format: cell-based, human; details: for IC50: Homo sapiens, MCF7, 48 h, read-out: In vitro IC50 (nM) Mean ± SD MCF-7, MTT, 48 h, mean ± SD, n = 3; for In vitro IC50 (nM) Mean ± SD MCF-7: MTT, 48 h, n = 3
[3] = test system: hepatocellular carcinoma (HepG-2) cell line; experiment: In vitro anti-proliferative activity, MTT assay, HepG-2; format: cell-based, human; details: for IC50: Homo sapiens, HepG2, 48 h, read-out: In vitro IC50 (nM) Mean ± SD HepG-2; for In vitro IC50 (nM) Mean ± SD HepG-2: MTT, 48 h, n = 3
[4] = test system: colorectal carcinoma (HCT-116) cell line; experiment: In vitro anti-proliferative activity, MTT assay, HCT-116; format: cell-based, human; details: 48 h, n = 3

SMILES: N=c1c2cnn(C(=O)CNc3ccc(F)cc3)c2ncn1N [Compound 4, 1-(5-Amino-4-imino-4,5-dihydro-1H-pyrazolo[3,4-d]pyrimidin-1-yl)-2-((4-fluorophenyl)amino)ethan-1-one]
IC50 [1]: 1.34 ± 0.021 µM
IC50 [2]: 150 ± 1.5 nM
IC50 [3]: 603 ± 1.9 nM

SMILES: N=c1c2cnn(C(=O)CNc3ccc(F)cc3)c2ncn1N[C@@H]1OC[C@@H](O)[C@H](O)[C@H]1O [Compound 6, 1-(4-Imino-5-((ß-D-xylopyranosyl)amino)-4,5-dihydro-1H-pyrazolo[3,4-d]pyrimidin-1-yl)-2-((4-fluorophenyl)amino)ethan-1-one]
IC50 [1]: 0.559 ± 0.013 µM
IC50 [2]: 621 ± 2.7 nM
IC50 [3]: 98 ± 0.78 nM

SMILES: O=C(CNc1ccc(F)cc1)n1ncc2c1ncn1[nH]c(=S)nc21 [Compound 7, 1-(2-Thioxo-2,3-dihydro-7H-pyrazolo[4,3-e][1,2,4]triazolo[1,5-c]pyrimidin-7-yl)-2-((4-fluorophenyl)amino)ethan-1-one]
IC50 [1]: 0.274 ± 0.005 µM
IC50 [2]: 937 ± 0.93 nM
IC50 [3]: 63 ± 0.11 nM
In vitro IC50 (nM) Mean ± SD HepG-2 [3]: moderate activity

SMILES: N=c1c2cnn(C(=O)CNc3ccc(F)cc3)c2ncn1N[C@@H]1O[C@H](CO)[C@@H](O)[C@H](O)[C@H]1O [Compound 5, 1-(4-Imino-5-((ß-D-glucopyranosyl)amino)-4,5-dihydro-1H-pyrazolo[3,4-d]pyrimidin-1-yl)-2-((4-fluorophenyl)amino)ethan-1-one]
IC50 [1]: 2.05 ± 0.05 µM
IC50 [2]: 663 ± 1.4 nM
IC50 [3]: 690 ± 0.48 nM

SMILES: COC(CSc1nc2c3cnn(C(=O)CNc4ccc(F)cc4)c3ncn2n1)OC [Compound 9, 1-(2-((2,2-Dimethoxyethyl)thio)-7H-pyrazolo[4,3-e][1,2,4]triazolo[1,5-c]pyrimidin-7-yl)-2-((4-fluorophenyl)amino)ethan-1-one]
IC50 [1]: 0.881 ± 0.049 µM
IC50 [2]: 60 ± 0.49 nM
IC50 [3]: 690 ± 1.6 nM
In vitro IC50 (nM) Mean ± SD HepG-2 [3]: no activity

SMILES: O=C(CNc1ccc(F)cc1)n1ncc2c1ncn1nc(SCC(O)CO)nc21 (stereo not drawn) [Compound 10, 1-{2-[(2,3-Dihydroxypropyl)thio]-7H-pyrazolo[4,3-e][1,2,4]triazolo[1,5-c]pyrimidin-7-yl}-2-((4-fluorophenyl)amino)ethan-1-one]
IC50 [1]: 0.506 ± 0.011 µM
IC50 [2]: 95 ± 1.9 nM
In vitro IC50 (nM) Mean ± SD MCF-7 [2]: potent activity
IC50 [3]: 987 ± 2 nM

SMILES: N#CCSc1nc2c3cnn(C(=O)CNc4ccc(F)cc4)c3ncn2n1 [Compound 8, 2-((7-((4-Fluorophenyl)glycyl)-7H-pyrazolo[4,3-e][1,2,4]triazolo[1,5-c]pyrimidin-2-yl)thio)acetonitrile]
IC50 [1]: 1.06 ± 0.059 µM
IC50 [2]: 72 ± 0.53 nM
IC50 [3]: 8 ± 0.34 nM
In vitro IC50 (nM) Mean ± SD HepG-2 [3]: potent activity

Continued, in another order:

IC50 [1]: 0.13 ± 0.007 µM
IC50 [2]: 55 ± 0.43 nM
In vitro IC50 (nM) Mean ± SD MCF-7 [2]: good activity
IC50 [3]: 74 ± 1.1 nM
In vitro IC50 (nM) Mean ± SD HepG-2 [3]: moderate activity
SMILES: CC(=O)OCCSc1nc2c3cnn(C(=O)CNc4ccc(F)cc4)c3ncn2n1 [Compound 13, 2-((7-((4-Fluorophenyl)glycyl)-7H-pyrazolo[4,3-e][1,2,4]triazolo[1,5-c]pyrimidin-2-yl)thio)ethyl acetate]
In vitro IC50 (nM) Mean ± SD HCT-116 [4]: most potent cytotoxic results

In vitro IC50 (nM) Mean ± SD HCT-116 [4]: inactive
IC50 [1]: 0.961 ± 0.019 µM
IC50 [2]: 613 ± 0.33 nM
In vitro IC50 (nM) Mean ± SD MCF-7 [2]: inactive
IC50 [3]: 928 ± 0.97 nM
In vitro IC50 (nM) Mean ± SD HepG-2 [3]: inactive
SMILES: O=C(CNc1ccc(F)cc1)n1ncc2c1ncn1nc(SCCO)nc21 [Compound 12, 1-(2-((2-Hydroxyethyl)thio)-7H-pyrazolo[4,3-e][1,2,4]triazolo[1,5-c]pyrimidin-7-yl)-2-((4-fluorophenyl)amino)ethan-1-one]

IC50 [2]: 144 ± 0.47 nM
IC50 [3]: 19 ± 0.29 nM
SMILES: CNC(=O)c1cc(Oc2ccc(NC(=O)Nc3ccc(Cl)c(C(F)(F)F)c3)cc2)ccn1 [Sorafenib, reference compound]

IC50 [1]: 0.089 ± 0.005 µM
IC50 [2]: 63 ± 1.1 nM
In vitro IC50 (nM) Mean ± SD MCF-7 [2]: good activity
IC50 [3]: 49 ± 0.17 nM
In vitro IC50 (nM) Mean ± SD HepG-2 [3]: moderate activity
SMILES: CC(=O)OCC(CSc1nc2c3cnn(C(=O)CNc4ccc(F)cc4)c3ncn2n1)OC(C)=O (stereo not drawn) [Compound 11, 3-((7-((4-Fluorophenyl)glycyl)-7H-pyrazolo[4,3-e][1,2,4]triazolo[1,5-c]pyrimidin-2-yl)thio)propane-1,2-diyl diacetate]
In vitro IC50 (nM) Mean ± SD HCT-116 [4]: most potent cytotoxic results
